Measurements taken from paper PMC4184702 (Pharmacology Research & Perspectives, 2014).

Legend:
α1A adrenergic receptor = target: T1, α1A adrenergic receptor (Homo sapiens, UniProt P35348); assay: PDSP primary binding, α1A; conditions: n = 4, read-out: Inhibition (primary binding competition efficacy), α1A
T1 construct: purchased NIMH Psychoactive Drug Screening Program (PDSP)
Procedure: (§1) For experimental details, please refer to the Psychoactive Drug Screening Program (PDSP) web site http://pdsp.med.unc.edu/.
(§2) ^a The default concentration for primary binding experiments is 10 µM (n = 4). ^b Negative inhibition represents a stimulation of binding. ^c BZPR: Benzodiazepine Receptors (rat brain site). ^d DOR: Delta Opioid Receptor; KOR: Kappa Opioid Receptor; MOR: Mu Opioid Receptor. ^e DAT: Dopamine Transporter; NET: Norepinephrine Transporter; SERT: Serotonin Transporter. ^f NMDA: N-methyl-D-aspartate receptor.

H2 histamine receptor = target: T2, H2 histamine receptor (Homo sapiens, UniProt P25021); assay: PDSP primary binding, H2; conditions: n = 4, read-out: Inhibition (primary binding competition efficacy), H2
T2 construct: purchased NIMH Psychoactive Drug Screening Program (PDSP)
T2 sequence (P25021 whole entry): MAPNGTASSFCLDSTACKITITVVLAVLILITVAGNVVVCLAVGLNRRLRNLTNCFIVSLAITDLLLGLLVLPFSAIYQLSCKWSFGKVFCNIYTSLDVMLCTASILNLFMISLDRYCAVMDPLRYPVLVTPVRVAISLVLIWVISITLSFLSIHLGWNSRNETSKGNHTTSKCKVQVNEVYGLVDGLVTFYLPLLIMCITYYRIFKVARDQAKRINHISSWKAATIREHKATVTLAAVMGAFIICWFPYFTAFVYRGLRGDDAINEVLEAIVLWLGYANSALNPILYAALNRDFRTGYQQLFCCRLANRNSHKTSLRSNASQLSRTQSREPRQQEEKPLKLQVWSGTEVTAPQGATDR
Procedure: as §1, §2

D2 dopamine receptor = target: T3, D2 dopamine receptor (Homo sapiens, UniProt P14416); assay: PDSP primary binding, D2; conditions: n = 4, read-out: Inhibition (primary binding competition efficacy), D2
T3 construct: purchased NIMH Psychoactive Drug Screening Program (PDSP)
T3 sequence (P14416 whole entry): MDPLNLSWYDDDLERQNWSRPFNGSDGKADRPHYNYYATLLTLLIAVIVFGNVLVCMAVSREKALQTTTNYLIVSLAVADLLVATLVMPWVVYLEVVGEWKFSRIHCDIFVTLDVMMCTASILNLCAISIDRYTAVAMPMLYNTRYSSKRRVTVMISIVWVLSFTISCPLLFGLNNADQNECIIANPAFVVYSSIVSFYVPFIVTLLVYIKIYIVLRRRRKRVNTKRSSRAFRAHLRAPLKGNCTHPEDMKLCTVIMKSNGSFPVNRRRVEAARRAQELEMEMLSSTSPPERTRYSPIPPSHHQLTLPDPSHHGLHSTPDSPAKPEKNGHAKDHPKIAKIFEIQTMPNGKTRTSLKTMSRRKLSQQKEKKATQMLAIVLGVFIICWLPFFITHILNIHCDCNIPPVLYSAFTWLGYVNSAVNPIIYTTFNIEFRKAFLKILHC
Procedure: as §1, §2

[1] = Metabolic stability, liver microsomes, human; type: in vitro ADME; conditions: 1.0E-06 M, 1 h
D3 dopamine receptor = target: T4, D3 dopamine receptor (Homo sapiens, UniProt P35462); assay: PDSP primary binding, D3; conditions: n = 4, read-out: Inhibition (primary binding competition efficacy), D3
T4 construct: purchased NIMH Psychoactive Drug Screening Program (PDSP)
T4 sequence (P35462 whole entry): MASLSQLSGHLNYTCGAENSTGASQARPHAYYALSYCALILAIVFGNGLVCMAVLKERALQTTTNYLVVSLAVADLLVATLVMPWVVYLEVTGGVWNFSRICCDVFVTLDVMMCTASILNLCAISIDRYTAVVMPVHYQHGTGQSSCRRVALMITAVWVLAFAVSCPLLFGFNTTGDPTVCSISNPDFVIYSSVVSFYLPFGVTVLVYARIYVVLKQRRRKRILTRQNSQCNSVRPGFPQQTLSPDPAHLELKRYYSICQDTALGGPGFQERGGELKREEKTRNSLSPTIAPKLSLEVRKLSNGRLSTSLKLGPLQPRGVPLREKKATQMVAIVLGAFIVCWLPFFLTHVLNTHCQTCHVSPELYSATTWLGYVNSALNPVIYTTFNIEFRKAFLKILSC
Procedure: as §1, §2

[2] = target: T5, SERT: Serotonin Transporter (Homo sapiens, UniProt P31645); assay: PDSP primary binding, SERT; conditions: n = 4, read-out: Inhibition (primary binding competition efficacy), SERT
T5 construct: purchased NIMH Psychoactive Drug Screening Program (PDSP)
T5 sequence (P31645 whole entry): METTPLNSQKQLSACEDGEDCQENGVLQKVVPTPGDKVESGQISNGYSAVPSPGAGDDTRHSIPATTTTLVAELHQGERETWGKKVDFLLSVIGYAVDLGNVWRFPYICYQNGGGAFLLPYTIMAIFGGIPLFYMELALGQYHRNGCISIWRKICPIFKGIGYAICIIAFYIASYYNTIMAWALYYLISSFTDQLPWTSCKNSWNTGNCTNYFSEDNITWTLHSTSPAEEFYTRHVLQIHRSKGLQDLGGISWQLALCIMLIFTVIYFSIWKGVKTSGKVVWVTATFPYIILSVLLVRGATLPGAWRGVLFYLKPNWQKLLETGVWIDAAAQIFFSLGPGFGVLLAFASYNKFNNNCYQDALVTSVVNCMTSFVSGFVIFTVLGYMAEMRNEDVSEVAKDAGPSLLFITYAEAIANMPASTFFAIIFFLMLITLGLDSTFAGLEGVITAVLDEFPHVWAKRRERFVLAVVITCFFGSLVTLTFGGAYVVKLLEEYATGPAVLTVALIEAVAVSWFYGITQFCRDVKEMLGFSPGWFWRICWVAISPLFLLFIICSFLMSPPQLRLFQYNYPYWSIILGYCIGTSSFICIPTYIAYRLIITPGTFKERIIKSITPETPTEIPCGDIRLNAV
Procedure: as §1, §2

PBR = target: T6, PBR (Rattus norvegicus, UniProt P16257); assay: PDSP primary binding, PBR; conditions: n = 4, read-out: Inhibition (primary binding competition efficacy), PBR
T6 construct: purchased NIMH Psychoactive Drug Screening Program (PDSP)
T6 sequence (P16257 whole entry): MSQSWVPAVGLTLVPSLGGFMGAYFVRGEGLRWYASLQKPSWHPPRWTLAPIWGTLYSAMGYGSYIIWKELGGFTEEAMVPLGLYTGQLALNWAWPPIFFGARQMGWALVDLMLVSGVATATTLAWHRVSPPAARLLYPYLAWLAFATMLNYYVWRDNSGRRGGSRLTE
Procedure: as §1, §2

[3] = target: hERG (human ether-a-go-go-related gene) (Homo sapiens, UniProt Q12809); assay: hERG inhibition assay; conditions: in words
hERG (human ether-a-go-go-related gene), sequence (Q12809 whole entry): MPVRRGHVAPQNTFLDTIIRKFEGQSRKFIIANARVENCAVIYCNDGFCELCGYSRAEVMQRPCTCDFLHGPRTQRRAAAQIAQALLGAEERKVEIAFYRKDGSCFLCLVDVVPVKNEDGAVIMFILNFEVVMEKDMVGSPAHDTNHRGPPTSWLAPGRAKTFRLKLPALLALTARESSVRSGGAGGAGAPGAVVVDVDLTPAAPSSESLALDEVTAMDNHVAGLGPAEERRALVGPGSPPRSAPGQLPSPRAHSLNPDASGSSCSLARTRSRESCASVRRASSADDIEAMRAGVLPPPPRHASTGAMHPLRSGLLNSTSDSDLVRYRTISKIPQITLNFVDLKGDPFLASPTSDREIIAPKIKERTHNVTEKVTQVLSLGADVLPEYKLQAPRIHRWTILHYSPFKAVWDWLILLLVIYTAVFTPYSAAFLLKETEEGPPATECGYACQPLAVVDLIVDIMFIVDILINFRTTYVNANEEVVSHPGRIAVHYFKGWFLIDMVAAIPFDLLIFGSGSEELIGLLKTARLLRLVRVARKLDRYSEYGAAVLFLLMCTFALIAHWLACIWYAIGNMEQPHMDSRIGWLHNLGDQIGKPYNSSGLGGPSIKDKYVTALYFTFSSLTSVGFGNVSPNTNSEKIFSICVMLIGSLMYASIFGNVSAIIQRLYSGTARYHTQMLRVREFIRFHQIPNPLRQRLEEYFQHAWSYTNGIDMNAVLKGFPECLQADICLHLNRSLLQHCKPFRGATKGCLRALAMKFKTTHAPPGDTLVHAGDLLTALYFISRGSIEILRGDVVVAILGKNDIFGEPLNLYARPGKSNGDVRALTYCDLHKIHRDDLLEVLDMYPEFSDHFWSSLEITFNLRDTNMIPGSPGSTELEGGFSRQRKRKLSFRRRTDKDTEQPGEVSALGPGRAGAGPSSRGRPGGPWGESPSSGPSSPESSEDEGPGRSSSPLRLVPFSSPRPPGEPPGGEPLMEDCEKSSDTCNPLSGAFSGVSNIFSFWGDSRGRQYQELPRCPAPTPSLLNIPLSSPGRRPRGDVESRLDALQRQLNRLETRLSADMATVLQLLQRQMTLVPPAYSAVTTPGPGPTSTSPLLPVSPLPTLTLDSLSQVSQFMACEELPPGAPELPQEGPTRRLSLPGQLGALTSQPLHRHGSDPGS

Male C57 BL6/J mice = test system: Male C57 BL6/J mice
Procedure: Male C57 BL6/J (from Jackson Laboratories) mice were used for these studies. Upon receipt at 6 weeks of age, mice were single-housed in OptiMICE ventilated cages and acclimated to the colony room for 1 week prior to beginning of the dosing regimen at 7 weeks of age.
Mice were tested in NSF on day 29 of treatment. Eighteen hours prior to behavioral testing, all food was removed from the home cage. The NSF test was carried out during a 15-min period. The test chamber consists of a rectangular (14″ × 20″ × 6″) plastic box. The chamber floor is covered with bedding (∼0.5″). At the time of testing, animals were placed in the left front corner of the chamber and two food pellets (regular chow) were placed on a laminated white paper circle (13 cm in diameter) positioned in the center of the test chamber. The latency to eat is defined by the animal holding the food with one or both paws and taking a bite of the pellet and staying in the center eating for at least 5 sec. The mice were videotaped and tapes were scored by two trained observers blind to the treatments. […] Upon completion of NSF, about 50 60 min after the pretreatment, mice were decapitated and all animals from all treatment groups except from the imipramine group were processed for collection of trunk blood and whole-brain tissue. […]

5-HT1B = target: T7, 5-HT1B (Homo sapiens, UniProt P28222); assay: PDSP primary binding, 5-HT1B; conditions: n = 4, negative inhibition = stimulation of binding, read-out: Inhibition (primary binding competition efficacy), 5-HT1B
T7 construct: purchased NIMH Psychoactive Drug Screening Program (PDSP)
Procedure: as §1, §2

[4] = target: T8, DOR: Delta Opioid Receptor (Homo sapiens, UniProt P41143); assay: PDSP primary binding, DOR; conditions: n = 4, read-out: Inhibition (primary binding competition efficacy), DOR
T8 construct: purchased NIMH Psychoactive Drug Screening Program (PDSP)
T8 sequence (P41143 whole entry): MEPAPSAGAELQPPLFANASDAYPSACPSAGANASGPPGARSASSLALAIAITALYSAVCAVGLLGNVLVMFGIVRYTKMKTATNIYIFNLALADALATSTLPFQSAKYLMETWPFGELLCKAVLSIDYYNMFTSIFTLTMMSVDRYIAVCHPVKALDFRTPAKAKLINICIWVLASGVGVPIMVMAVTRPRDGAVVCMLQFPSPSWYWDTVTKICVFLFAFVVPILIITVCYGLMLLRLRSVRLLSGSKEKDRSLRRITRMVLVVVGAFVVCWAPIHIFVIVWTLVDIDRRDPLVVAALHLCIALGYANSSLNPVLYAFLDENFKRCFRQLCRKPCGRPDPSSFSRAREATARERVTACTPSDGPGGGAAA
Procedure: as §1, §2

[5] = Bacterial cytotoxicity, strain TA100; type: cell-based; conditions: Salmonella typhimurium, bacterial tester strain TA100 without S9, read-out: Cytotoxicity (% of Control Values)
Excerpt: Supplement prp20002-e00026-sd1.doc, table 4: Table 4.

strain TA100 = assay: Ames test, strain TA100; type: cell-based
α2A adrenergic receptor = target: T9, α2A adrenergic receptor (Homo sapiens, UniProt P08913); assay: PDSP primary binding, α2A; conditions: n = 4, read-out: Inhibition (primary binding competition efficacy), α2A
T9 construct: purchased NIMH Psychoactive Drug Screening Program (PDSP)
T9 sequence (P08913 whole entry): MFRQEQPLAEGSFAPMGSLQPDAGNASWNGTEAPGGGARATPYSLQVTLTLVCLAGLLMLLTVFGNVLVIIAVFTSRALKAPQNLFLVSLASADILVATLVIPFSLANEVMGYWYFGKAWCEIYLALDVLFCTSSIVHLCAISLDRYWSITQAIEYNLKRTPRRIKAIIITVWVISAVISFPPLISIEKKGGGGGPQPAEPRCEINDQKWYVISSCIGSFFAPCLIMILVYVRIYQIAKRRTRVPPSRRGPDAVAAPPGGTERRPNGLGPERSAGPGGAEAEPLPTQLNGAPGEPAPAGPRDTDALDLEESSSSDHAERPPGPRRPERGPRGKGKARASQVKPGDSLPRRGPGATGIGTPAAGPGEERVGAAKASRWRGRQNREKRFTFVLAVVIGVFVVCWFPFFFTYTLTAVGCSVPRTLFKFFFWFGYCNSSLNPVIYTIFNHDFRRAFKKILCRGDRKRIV
Procedure: as §1, §2

α7 nAChR = conditions: ref Yu et al. [2012], cited from earlier work
CYP1A = target: T10, CYP1A (Homo sapiens, UniProt P05177); assay: CYP1A inhibition, HLM, phenacetin substrate; type: in vitro ADME; conditions: 1.0E-05 M
T10 construct: from tissue; host or cells: human liver microsomes (HLM)
T10 sequence (P05177 2-516 limits assumed): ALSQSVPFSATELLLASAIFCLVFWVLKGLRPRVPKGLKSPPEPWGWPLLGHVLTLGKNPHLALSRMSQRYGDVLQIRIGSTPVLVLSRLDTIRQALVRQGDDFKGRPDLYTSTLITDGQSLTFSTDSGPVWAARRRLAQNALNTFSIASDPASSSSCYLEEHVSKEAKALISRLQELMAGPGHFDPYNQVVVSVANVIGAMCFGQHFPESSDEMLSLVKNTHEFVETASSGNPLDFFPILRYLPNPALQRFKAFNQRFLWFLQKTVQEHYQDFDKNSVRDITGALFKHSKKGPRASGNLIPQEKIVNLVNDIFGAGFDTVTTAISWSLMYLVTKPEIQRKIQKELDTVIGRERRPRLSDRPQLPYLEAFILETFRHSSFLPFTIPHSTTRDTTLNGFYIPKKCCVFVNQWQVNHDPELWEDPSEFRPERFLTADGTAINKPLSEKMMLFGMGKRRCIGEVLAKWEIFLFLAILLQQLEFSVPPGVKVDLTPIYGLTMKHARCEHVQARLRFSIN
Excerpt: (§3) Supplement prp20002-e00026-sd1.doc, table 3: Table 3.

5-HT4 = target: T11, 5-HT4 (Homo sapiens, UniProt Q13639); assay: PDSP primary binding, 5-HT4; conditions: n = 4, read-out: Inhibition (primary binding competition efficacy), 5-HT4
T11 construct: purchased NIMH Psychoactive Drug Screening Program (PDSP)
T11 sequence (Q13639 whole entry): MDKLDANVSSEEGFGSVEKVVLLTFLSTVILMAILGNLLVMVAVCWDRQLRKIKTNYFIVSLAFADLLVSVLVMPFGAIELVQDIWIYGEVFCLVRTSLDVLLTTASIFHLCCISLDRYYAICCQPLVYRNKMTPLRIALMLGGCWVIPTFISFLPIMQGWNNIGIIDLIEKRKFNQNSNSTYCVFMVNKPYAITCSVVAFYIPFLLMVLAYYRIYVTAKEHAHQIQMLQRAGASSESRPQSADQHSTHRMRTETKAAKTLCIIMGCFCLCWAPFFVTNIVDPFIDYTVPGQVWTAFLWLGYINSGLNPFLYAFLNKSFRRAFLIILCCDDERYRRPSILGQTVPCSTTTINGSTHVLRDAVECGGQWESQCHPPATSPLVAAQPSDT
Procedure: as §1, §2

CYP3A = CYP3A inhibition, HLM, midazolam substrate; type: in vitro ADME, human; conditions: 1.0E-05 M
Excerpt: as §3

5-HT1D = target: T12, 5-HT1D (Homo sapiens, UniProt P28221); assay: PDSP primary binding, 5-HT1D; conditions: n = 4, read-out: Inhibition (primary binding competition efficacy), 5-HT1D
T12 construct: purchased NIMH Psychoactive Drug Screening Program (PDSP)
Procedure: as §1, §2

α1B adrenergic receptor = target: T13, α1B adrenergic receptor (Homo sapiens, UniProt P35368); assay: PDSP primary binding, α1B; conditions: n = 4, read-out: Inhibition (primary binding competition efficacy), α1B
T13 construct: purchased NIMH Psychoactive Drug Screening Program (PDSP)
Procedure: as §1, §2

OCCc1cc(-c2cncc(OC[C@@H]3CCN3)c2)on1 [LF-3-88, 2-[5-[5-(2(S)-azetidinylmethoxyl)-3-pyridyl]-3-isoxazolyl]ethanol]
inhibition at 10 µM (α1A adrenergic receptor): -5.5%
inhibition at 10 µM (H2 histamine receptor): 39.5%
inhibition at 10 µM (D2 dopamine receptor): 17.2%
Remaining (metabolic stability) [1]: 89%
inhibition at 10 µM (D3 dopamine receptor): 3%
inhibition at 10 µM [2]: -0.2%
inhibition at 10 µM (PBR): -1.5%
profile in hERG inhibition assay [3]: favorable profile
treatment effect on body weight (Male C57 BL6/J mice; 4-week administration): did not find a significant treatment effect
behavioral changes / tolerability in NSF paradigm (Male C57 BL6/J mice; 28 days oral administration, 5 and 10 mg/kg): No obvious behavioral changes
inhibition at 10 µM (5-HT1B): -7.9%
inhibition at 10 µM [4]: 5.9%
viability at 0.0001 M ([5]; strain TA100 – S9, 1.0E-04 M): 139%
viability at 10 µM ([5]; strain TA100 – S9, 1.0E-05 M): 103%
viability at 1.25 µM ([5]; strain TA100 – S9, 1.25E-06 M): 102%
viability at 25 µM ([5]; strain TA100 – S9, 2.5E-05 M): 115%
viability at 2.5 µM ([5]; strain TA100 – S9, 2.5E-06 M): 99%
viability at 50 µM ([5]; strain TA100 – S9, 5.0E-05 M): 125%
viability at 5 µM ([5]; strain TA100 – S9, 5.0E-06 M): 103%
viability at 625 nM ([5]; strain TA100 – S9, 6.25E-07 M): 101%
Ames test Result (strain TA100; strain TA100 + S9, 1.0E-04 M): Negative
Ames test Result (strain TA100; strain TA100 + S9, 1.0E-05 M): Negative
Ames test Result (strain TA100; strain TA100 + S9, 5.0E-05 M): Negative
Ames test Result (strain TA100; strain TA100 + S9, 5.0E-06 M): Negative
Ames test Result (strain TA100; strain TA100 – S9, 1.0E-04 M): Negative
Ames test Result (strain TA100; strain TA100 – S9, 1.0E-05 M): Negative
Ames test Result (strain TA100; strain TA100 – S9, 5.0E-05 M): Negative
Ames test Result (strain TA100; strain TA100 – S9, 5.0E-06 M): Negative
mutagenic potential (Ames), TA100 (strain TA100; with or without S9, 5, 10, 50, or 100 μmol/L): negative
inhibition at 10 µM (α2A adrenergic receptor): 23.1%
Ki α7 (α7 nAChR; class symbol): NA ^4 (NA: not active, defined as < 50% binding in the primary assay at 10 μmol/L)
Ki (α7 nAChR; read-out: Ki α7-nAChRs): > 10 µM
CYP1A Inhibition (CYP1A): 13%
inhibition at 10 µM (5-HT4): 3.7%
CYP3A Inhibition (CYP3A): 1%
inhibition at 10 µM (5-HT1D): -14.9%
inhibition at 10 µM (α1B adrenergic receptor): -1.8%
